# Earlier results in US20070224228A1, “Soap Bars Having Ultraviolet Radiation Protection” (priority 2004, published 2007).
# Conditions: partition coefficient; solvents octanol and water; values printed as approximate (˜)
row,Log P,Compound
1,~6.9,CCCCC(CC)COC(=O)C(C#N)=C(c1ccccc1)c1ccccc1 (centres unmarked) [Octocrylene]
2,~5.7,Cyclomethicone
